The test addresses T1, NLRP3 inflammasome (Homo sapiens, UniProt Q96P20).
T1 construct: endogenous in cells; host or cells: THP-1 cells (PMA-differentiated, stimulated with LPS and ATP)
In words: THP-1 IL-1β production inhibition test. Format: cell-based. The settings on record: PMA-treated THP-1 cells, LPS 50 ng/mL + ATP 5 mM, 2 hours, IL-1β in supernatant by ELISA. How it is done: PMA (phorbol myristate acetate, SIGMA, P1585) was added to THP-1 cells in an amount of 50 ng/mL to culture the cells for 2 days at 37° C. […] LPS (Lipopolysaccharide, SIMGA, L2880) and ATP (Adenosine triphosphate, SIGMA, A2383) were added so that final concentrations become 50 ng/mL and 5 mM, respectively, followed by culturing at 37° C. for 2 hours. The supernatants were collected to measure the concentrations of IL-1β by ELISA (DuoSet ELISA human IL-1β, R&D Systems, DY201). The IL-1β concentrations were plotted against log concentrations of test compounds, and an IC50 value was calculated by sigmoid Emax model nonlinear regression analysis.
A general note: In an ELISA, binding on a coated surface is turned into a signal by an enzyme label.

Where a name gives a salt, the structure may show the parent alone.

T1 sequence (Q96P20 whole entry): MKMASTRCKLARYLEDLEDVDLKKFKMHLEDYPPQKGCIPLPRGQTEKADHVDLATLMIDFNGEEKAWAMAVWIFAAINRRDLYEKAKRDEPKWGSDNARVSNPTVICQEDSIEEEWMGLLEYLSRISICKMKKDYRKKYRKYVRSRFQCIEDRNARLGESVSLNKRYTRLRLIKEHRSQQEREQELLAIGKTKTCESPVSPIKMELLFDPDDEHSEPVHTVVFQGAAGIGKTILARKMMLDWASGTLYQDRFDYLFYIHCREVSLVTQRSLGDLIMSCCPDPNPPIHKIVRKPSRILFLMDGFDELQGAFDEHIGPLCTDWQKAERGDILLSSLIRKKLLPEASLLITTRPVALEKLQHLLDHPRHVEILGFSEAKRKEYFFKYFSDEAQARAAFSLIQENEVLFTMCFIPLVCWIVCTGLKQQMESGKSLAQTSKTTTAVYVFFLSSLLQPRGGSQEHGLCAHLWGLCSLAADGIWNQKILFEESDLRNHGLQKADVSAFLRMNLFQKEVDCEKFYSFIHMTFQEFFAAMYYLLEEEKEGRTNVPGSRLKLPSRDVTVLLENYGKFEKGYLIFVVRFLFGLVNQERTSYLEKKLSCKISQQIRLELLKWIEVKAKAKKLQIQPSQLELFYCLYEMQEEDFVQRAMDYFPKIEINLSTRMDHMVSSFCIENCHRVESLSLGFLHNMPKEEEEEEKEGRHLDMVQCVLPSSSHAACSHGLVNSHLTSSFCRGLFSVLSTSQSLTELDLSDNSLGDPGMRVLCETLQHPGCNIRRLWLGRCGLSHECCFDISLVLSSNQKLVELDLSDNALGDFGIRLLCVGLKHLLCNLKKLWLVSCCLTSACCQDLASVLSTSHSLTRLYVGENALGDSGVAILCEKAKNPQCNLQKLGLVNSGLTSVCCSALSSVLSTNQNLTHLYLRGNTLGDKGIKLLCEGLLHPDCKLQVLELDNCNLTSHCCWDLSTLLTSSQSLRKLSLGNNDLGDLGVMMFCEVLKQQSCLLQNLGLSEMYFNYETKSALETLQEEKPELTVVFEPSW

With `Oc1cc(C(F)(F)F)ccc1-c1nnc(N[C@@H]2CCOC[C@H]2O)c2c1CCCCC2` [Example 44], the IC50 was 0.0068 µM.
In the case of `C[C@@H](O)CNc1nnc(-c2ccc(C(F)(F)F)cc2O)c2c1[C@H]1CC[C@@H]2CC1` [Example 24] it was 0.074 µM; in that of `C[C@@H](O)CNc1nnc(-c2ccc(C(F)(F)F)cc2C(F)(F)F)c2c1CCC2` [Example 8], 0.21 µM.
Consider `C[C@@H](O)CNc1nnc(-c2ccc(C(F)(F)F)cc2C(F)(F)F)c2c1CN(S(C)(=O)=O)CC2` [Example 80, (2R)-1-({1-[2,4-bis(trifluoromethyl)phenyl]-6-(methanesulfonyl)-5,6,7,8-tetrahydropyrido[3,4-d]pyridazin-4-yl}amino)propan-2-ol], for which the IC50 worked out at 5.2 µM.
For `Cc1cc(O)c(-c2nnc(N[C@@H]3CCCC[C@H]3O)c3c2COCC3)c(F)c1` [62(2)], the IC50 came to 0.027 µM.
In the case of `CC1(C)SCc2c(N[C@@H]3CCCN(CC(F)F)C3)nnc(-c3ccc(C(F)(F)F)cc3O)c21` [Example 132, 2-(4-{[(3R)-1-(2,2-difluoroethyl)piperidin-3-yl]amino}-7,7-dimethyl-5,7-dihydrothieno[3,4-d]pyridazin-1-yl)-5-(trifluoromethyl)phenol] it was 0.095 µM; in that of `Oc1cc(Cl)ccc1-c1nnc(N[C@@H]2CCOC[C@H]2O)c2c1CCCC2` [Example 39], 0.019 µM.
In the case of `Oc1cc(C(F)(F)F)ccc1-c1nnc(N[C@H]2CCCC[C@@H]2O)c2c1COCC2` [66(1)] it was 0.99 µM.
As for `COc1ccc(-c2nnc(N[C@@H]3CCOC[C@H]3O)c3c2CCCCC3)c(O)c1` [Example 49], the IC50 worked out at 0.022 µM.
On to `CC(=O)N1CCc2c(-c3ccc(C(F)(F)F)cc3O)nnc(N[C@@H]3CCCC[C@H]3O)c2C1` [Example 92, 1-[4-{[(1R,2R)-2-hydroxycyclohexyl]amino}-1-[2-hydroxy-4-(trifluoromethyl)phenyl]-7,8-dihydropyrido[3,4-d]pyridazin-6(5H)-yl]ethan-1-one], for which the concentration for half-maximal inhibition (IC50) is 0.047 µM.
In the case of `Oc1cc(C(F)(F)F)ccc1-c1nnc(N[C@H]2CCC(F)(F)C2)c2ccccc12` [Example 11] it was 0.016 µM; in that of `COc1ccc(-c2nnc(N[C@@H]3CCCC[C@@]3(C)O)c3c2CCCC3)c(O)c1` [Example 58], 0.088 µM.
In the case of `COc1ccc(-c2nnc(N[C@@H]3CCCC[C@H]3O)c3c2CCOC3)c(O)c1` [Example 69] it was 0.0066 µM; in that of `Oc1cc(C(F)(F)F)ccc1-c1nnc(N[C@@H]2CCCC[C@H]2O)c2c1CCCO2` [Example 41], 0.04 µM; in that of `O=S1(=O)Cc2c(N[C@@H]3CCCC[C@H]3O)nnc(-c3ccc(C(F)(F)F)cc3O)c2C1` [131(1)], 0.003 µM.
In the case of `Oc1cc(C(F)(F)F)ccc1-c1nnc(N[C@@H]2CCOC[C@H]2O)c2c1COCC2` [101(2)] it was 0.0086 µM; in that of `Cc1ccc(-c2nnc(N[C@@H]3CCOC[C@H]3O)c3c2CCCC3)c(O)c1` [Example 36], 0.032 µM.
`Oc1cc(OC(F)(F)F)ccc1-c1nnc(N[C@@H]2CCCC[C@H]2O)c2c1COCC2` [3(2), 2-(1-{[(1R,2R)-2-hydroxycyclohexyl]amino}-7,8-dihydro-5H-pyrano[3,4-d]pyridazin-4-yl)-5-(trifluoromethoxy)phenol]: the IC50 came out at 0.007 µM.
As to `Oc1cc(C(F)(F)F)ccc1-c1nnc(N[C@@H]2CCCC[C@H]2O)c2c1CCOC2` [Example 133, 2-(4-{[(1R,2R)-2-hydroxycyclohexyl]amino}-7,8-dihydro-5H-pyrano[3,4-d]pyridazin-1-yl)-5-(trifluoromethyl)phenol monohydrochloride], the IC50 was 0.0013 µM.
With `Oc1cc(OC(F)(F)F)ccc1-c1nnc(N[C@@H]2CCCC[C@H]2O)c2c1CCOC2` [Example 135, 2-(4-{[(1R,2R)-2-hydroxycyclohexyl]amino}-7,8-dihydro-5H-pyrano[3,4-d]pyridazin-1-yl)-5-(trifluoromethoxy)phenol monohydrochloride], the IC50 was found to be 0.0029 µM.
Consider `C[C@@]1(O)CCCC[C@H]1Nc1nnc(-c2ccc(C(F)(F)F)cc2O)c2c1CCCC2` [Example 53], for which the half-maximal inhibitory concentration (IC50) is 0.015 µM.
In the case of `Oc1cc(Cl)ccc1-c1nnc(N[C@@H]2CCCC[C@H]2O)c2c1CCCC2` [Example 25] it was 0.0046 µM; in that of `N#C[C@@H]1CCCC[C@H]1Nc1nnc(-c2ccc(C(F)(F)F)cc2O)c2c1CCOC2` [72(2)], 0.014 µM; in that of `CN1CCC[C@@H](Nc2nnc(-c3ccc(Cl)cc3O)c3c2COCC3)C1` [Example 109], 0.0015 µM.
In the case of `OCC1(CNc2nnc(-c3ccc(C(F)(F)F)cc3O)c3ccccc23)CC1` [Example 13] it was 0.015 µM; in that of `O=C1NCC[C@@H]1Nc1nnc(-c2ccc(C(F)(F)F)cc2O)c2c1CCCC2` [Example 50], 0.0082 µM.
As for `O=S1(=O)CCc2c(N[C@@H]3CCCC[C@H]3O)nnc(-c3ccc(C(F)(F)F)cc3O)c2C1` [Example 130], the IC50 is 0.022 µM.
In the case of `C[C@]1(O)C[C@@H](Nc2nnc(-c3ccc(C(F)(F)F)cc3O)c3c2COCC3)C1` [56(1)] it was 0.007 µM.
Take `COc1ccc(-c2nnc(N[C@H]3C[C@@](C)(O)C3)c3c2CCCC3)c(O)c1` [Example 33]: the IC50 turned out to be 0.1 µM.
In the case of `Oc1cc(C(F)(F)F)ccc1-c1nnc(N[C@@H]2CCCN(C3COC3)C2)c2c1CCCC2` [Example 97, 2-(4-{[(3R)-1-(oxetan-3-yl)piperidin-3-yl]amino}-5,6,7,8-tetrahydrophthalazin-1-yl)-5-(trifluoromethyl)phenol] it was 0.0034 µM; in that of `CC(=O)N[C@@H]1CCCC[C@H]1Nc1nnc(-c2ccc(C(F)(F)F)cc2O)c2ccccc12` [Example 23], 0.017 µM.
`C[C@@H](O)CCc1nnc(-c2ccc(C(F)(F)F)cc2O)c2c1CCCC2` [Example 20]: the IC50 stood at 0.022 µM.
As for `C[C@@H](O)CNc1nnc(-c2ccc(C(F)(F)F)cc2C(F)(F)F)c2c1CN(Cc1ccccc1)CC2` [Example 9], the IC50 turned out to be 1.3 µM.
On to `C[C@@H](O)CNc1nnc(-c2ccc(C(F)(F)F)cc2O)c2c1CCCC2` [Example 17], for which the IC50 is 0.02 µM.
In the case of `Cc1ccc(-c2nnc(N[C@@H]3CCCC[C@H]3O)c3c2CCN(C)C3)c(O)c1` [Example 77] it was 0.033 µM.
In the case of `C[C@@H](O)CNc1nnc(-c2ccc(C(F)(F)F)cc2O)c2cnccc12` [16(2)] it was 0.02 µM.
In the case of `N#C[C@@H]1CCCC[C@H]1Nc1nnc(-c2ccc(C(F)(F)F)cc2O)c2c1COCC2` [72(1)] it was 0.027 µM; in that of `C[C@]1(O)C[C@@H](Nc2nnc(-c3ccc(OC(F)(F)F)cc3O)c3c2CCCC3)C1` [Example 32], 0.076 µM; in that of `COc1ccc(-c2nnc(N[C@@H]3CCOC[C@H]3O)c3c2CCCC3)c(O)c1` [Example 38], 0.054 µM.
Turning to `COc1ccc(-c2nnc(NCCCO)c3c2CCCC3)cc1` [Example 7], the half-inhibitory concentration (IC50) turned out to be 8.5 µM.
As to `C[C@@H](O)CNc1nnc(-c2ccc(C(F)(F)F)cc2O)c2c1CCC2` [Example 18], the IC50 was found to be 0.034 µM.
In the case of `Oc1cc(C(F)(F)F)c(F)cc1-c1nnc(N[C@@H]2CCCC[C@H]2O)c2c1CCCC2` [Example 85] it was 0.058 µM; in that of `Oc1cc(C2CC2)ccc1-c1nnc(N[C@@H]2CCCC[C@H]2O)c2c1CCOC2` [52(1)], 0.0041 µM.
In the case of `Oc1cc(C(F)(F)F)ccc1-c1nnc(NCC2(O)CCC2)c2ccccc12` [Example 12] it was 0.058 µM; in that of `Cc1ccc(-c2nnc(N[C@@H]3CCCC[C@@]3(C)O)c3c2CCCC3)c(O)c1` [Example 55], 0.036 µM; in that of `Oc1cc(C(F)(F)F)ccc1-c1nnc(NC[C@H]2CCCO2)c2ccccc12` [Example 14], 0.0076 µM.
In the case of `[O-][S+]1Cc2c(N[C@@H]3CCCC[C@H]3O)nnc(-c3ccc(C(F)(F)F)cc3O)c2C1` (some centres unmarked) [131(2)] it was 0.079 µM; in that of `Oc1cc(C(F)F)ccc1-c1nnc(N[C@@H]2CCCC[C@H]2O)c2c1CCCC2` [Example 84], 0.018 µM.
`C[C@@]1(O)CCCC[C@H]1Nc1nnc(-c2ccc(OC(F)F)cc2O)c2c1CCCC2` [Example 89]: the IC50 was 0.031 µM.
In the case of `CC(C)(O)CNc1nnc(-c2ccc(C(F)(F)F)cc2O)c2c1CCC2` [Example 21] it was 0.081 µM; in that of `C[C@@]1(O)CCCC[C@H]1Nc1nnc(-c2ccc(OC(F)(F)F)cc2O)c2c1CCCC2` [Example 54], 0.021 µM; in that of `Oc1cc(C(F)(F)F)ccc1-c1nnc(N[C@@H]2CCCC[C@H]2O)c2c1CCCC2` [Example 134, 2-(4-{[(1R,2R)-2-hydroxycyclohexyl]amino}-5,6,7,8-tetrahydrophthalazin-1-yl)-5-(trifluoromethyl)phenol monohydrochloride], 0.0046 µM.
In the case of `CC(=O)N1CCC[C@@H](Oc2nnc(-c3ccc(C(F)(F)F)cc3O)c3ccccc23)C1` [Example 65] it was 0.048 µM.
As for `Oc1cc(C(F)(F)F)ccc1-c1nnc(N[C@@H]2CCCC[C@@H]2O)c2c1COCC2` [4(2), 2-(1-{[(1R,2S)-2-hydroxycyclohexyl]amino}-7,8-dihydro-5H-pyrano[3,4-d]pyridazin-4-yl)-5-(trifluoromethyl)phenol], the 50% inhibitory concentration (IC50) is 0.015 µM.
As to `COc1ccc(-c2nnc(N[C@@H]3CCCN(C)C3)c3c2CCOC3)c(O)c1` [Example 110], the IC50 turned out to be 0.0014 µM.
`Oc1cc(C(F)(F)F)ccc1-c1nnc(N[C@@H]2CCCC[C@H]2O)c2c1CCNC2` [Example 90, 2-(4-{[(1R,2R)-2-hydroxycyclohexyl]amino}-5,6,7,8-tetrahydropyrido[3,4-d]pyridazin-1-yl)-5-(trifluoromethyl)phenol dihydrochloride]: the 50% inhibitory concentration (IC50) is 0.012 µM.

In general, IC50 refers to the point on the concentration scale where inhibition reaches its midpoint.

For the origin of these results see patent US20250084092A1, “ANNULATED PYRIDAZINE COMPOUND” (Nico Therapeutics, Inc., priority 2021, published 2025).
